Data on three compounds can be found in publication PMC3368874, “Characterization of 4-HNE Modified L-FABP Reveals Alterations in Structural and Functional Dynamics” (PLoS ONE, 2012).

On the set-up of data set [1]: method as in PMID 12437335. The conditions noted are these: cited from earlier work.
Data set [2] has as its target T1, apo rL-FABP (Mus musculus, UniProt P12710).
T1 construct: made in house; host or cells: Escherichia coli BL21 (DE3)
T1 sequence (P12710 1-127): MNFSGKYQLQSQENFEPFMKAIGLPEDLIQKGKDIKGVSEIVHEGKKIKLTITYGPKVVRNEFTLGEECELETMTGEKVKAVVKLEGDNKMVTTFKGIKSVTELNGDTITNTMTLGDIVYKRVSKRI
Nature of the data set: Thermal denaturation of apo rL-FABP (UV-monitored). The procedure: (§1) The stability of rL-FABP was assessed using UV-monitored heating experiments. Native (apo and holo) and 4-HNE modified (apo and holo) rL-FABP (0.8 mg/ml) was thermally denatured in 50 mM tricine buffer (pH 8.0) at 40–95°C over 1.5 hours in a 0.7 mL quartz cell (Starna Cells). Absorbance of rL-FABP was monitored at 260–360 nm using a Chirascan Plus Spectrometer (Applied Photophysics, Leatherhead, Surrey, UK) once per minute. Temperature was continuously ramped 1°C/min. Light scattering was recorded continuously at 360 nm to monitor protein aggregation. Temperature of aggregation (Tm) was determined using Global Analysis T-Ramp software provided by Applied Photophysics (Pro-Data Global3 v1.1.0) following baseline correction.

Data set [3] concerns the target T2, 4-HNE modified rL-FABP (Mus musculus, UniProt P12710).
T2 construct: made in house; host or cells: Escherichia coli BL21 (DE3)
T2 sequence (P12710 1-127): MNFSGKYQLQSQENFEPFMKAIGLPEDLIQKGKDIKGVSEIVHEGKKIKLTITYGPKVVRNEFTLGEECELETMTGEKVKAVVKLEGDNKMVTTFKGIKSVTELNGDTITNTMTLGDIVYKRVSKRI
Nature of the data set: ANS equilibrium binding to 4-HNE treated rL-FABP (fluorescence). The method, then: (§2) Steady-state fluorescence spectra were measured using a HORIBA JOBIN YVON FluoroMax-3 Fluorometer (Edison, NJ USA). The binding of ANS to rL-FABP was monitored following excitation at 370 nm and emission at 475 nm, with slits set at 2 and 4 nm, respectively. Measurements were taken at ambient temperature in a 0.7 mL fluorescence cuvette (Starna Cells, Atascadero, CA). Equilibrium binding studies were conducted with saturating concentrations of ANS according to previous studies, [30] with slight modifications. Briefly, ANS (0–45 µM) was titrated into 1 µM rL-FABP in 50 mM tricine buffer (pH 8.0), mixed for 30 seconds, and emission spectra were recorded. rL-FABP was either treated with 4-HNE (0.1X [5.93 µM], 1X [53.93 µM], or 5X [245.09 µM]) or the arginine blocker phenylglyoxal (PG) (10 mM), or a combination of the two (PG +5X). Following treatments, protein was dialyzed overnight in tricine buffer, pH 8.0. Preparation of ANS was conducted according to Denicola et al., where it was solubilized in absolute ethanol and quantified at Abs372 with an extinction coefficient of 8,000 cm^−1·M^−1 prior to use.
(§3) Statistical analysis and generation of graphs was performed using GraphPad Prism (v 4.02; GraphPad Software, San Diego, CA) and SigmaPlot (v10.0; Systat Software, San Jose, CA). Statistical differences between control and treated samples were assessed using a paired Student’s t test or a one-way ANOVA with Tukey’s post-test. Differences were considered significant if p<0.05. Nonlinear regression (curve fit) analysis was performed using a two-site binding hyperbola (eq 1), where ΔF is the enhancement in fluorescence intensity upon the binding of ANS to L-FABP to a point of saturation (Bmax). [drawing 1] (1)

The target in data set [4] is T3, holo rL-FABP (Mus musculus, UniProt P12710).
T3 construct: made in house; host or cells: Escherichia coli BL21 (DE3)
T3 sequence (P12710 1-127): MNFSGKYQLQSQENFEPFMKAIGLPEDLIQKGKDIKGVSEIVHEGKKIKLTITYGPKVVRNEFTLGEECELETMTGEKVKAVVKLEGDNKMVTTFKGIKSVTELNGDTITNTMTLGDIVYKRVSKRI
Nature of the data set: Thermal denaturation of holo rL-FABP (UV-monitored). Conditions: semi-quantitative. The procedure: as §1

For data set [5], the target named is T4, PG + 5X 4-HNE treated rL-FABP (Mus musculus, UniProt P12710).
T4 construct: made in house; host or cells: Escherichia coli BL21 (DE3)
T4 sequence (P12710 1-127): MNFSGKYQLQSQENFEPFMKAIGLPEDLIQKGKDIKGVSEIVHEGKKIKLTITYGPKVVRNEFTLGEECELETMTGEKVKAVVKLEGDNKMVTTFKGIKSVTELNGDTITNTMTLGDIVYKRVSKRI
Nature of the data set: ANS equilibrium binding to PG + 5X 4-HNE treated rL-FABP. The method, then: as §2, §3

The target of data set [6] is T5, PG treated rL-FABP (Mus musculus, UniProt P12710).
T5 construct: made in house; host or cells: Escherichia coli BL21 (DE3)
T5 sequence (P12710 1-127): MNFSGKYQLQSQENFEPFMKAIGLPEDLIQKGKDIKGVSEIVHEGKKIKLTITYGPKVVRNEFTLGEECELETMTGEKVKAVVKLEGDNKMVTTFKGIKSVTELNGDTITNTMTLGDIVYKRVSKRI
Description: ANS equilibrium binding to phenylglyoxal (PG) treated rL-FABP. The method, then:
as §2, §3

Data set [7] deals with T6, rL-FABP (Mus musculus, UniProt P12710).
T6 construct: made in house; host or cells: Escherichia coli BL21 (DE3)
T6 sequence (P12710 1-127): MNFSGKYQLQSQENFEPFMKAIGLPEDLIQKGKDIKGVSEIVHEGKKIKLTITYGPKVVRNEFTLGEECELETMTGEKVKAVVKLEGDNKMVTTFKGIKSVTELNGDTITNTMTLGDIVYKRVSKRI
Description: ANS equilibrium binding to native rL-FABP (fluorescence). The procedure: as §2, §3

Data set [8] addresses T7, 4-HNE adducted rL-FABP (Mus musculus, UniProt P12710).
T7 construct: made in house; host or cells: Escherichia coli BL21 (DE3)
T7 sequence (P12710 1-127): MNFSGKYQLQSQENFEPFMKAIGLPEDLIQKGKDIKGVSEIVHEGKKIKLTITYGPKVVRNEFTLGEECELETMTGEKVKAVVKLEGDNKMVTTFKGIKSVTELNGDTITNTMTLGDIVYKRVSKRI
Nature of the data set: Displacement of ANS by fatty acids, 1X 4-HNE treated rL-FABP. Type of data set: binding. The method, then:
(§4) Lipid displacement assays were adapted from previous publications, [30]. Briefly, lipids were used to displace ANS bound to rL-FABP to assess how 4-HNE modification affects affinity towards more biologic ligands. Lipid stocks were diluted in absolute ethanol (10 mM, 5 mM, 1 mM, 0.1 mM) and prepared in a nitrogen gas chamber. Using conditions similar to ANS binding, increasing concentrations of FAs [stearate (SA), oleate (OA), and LA] were titrated into a pre-equilibrated solution containing 45 µM ANS, 1 µM r-LFABP, and 50 mM tricine (pH 8.0). The sample was mixed for an additional 30 seconds and the excitation and emission of ANS was measured as mentioned, where the loss of fluorescence indicates affinity towards the lipid.
(§5) For the displacement assays, one-site inhibition analysis of the data was utilized based on the fit of the data (instead of a two-site inhibition analysis) (eq2). Fluorescence counts that are inhibitable are denoted as bi, and residual counts are br. The concentration of OA, SA or LA is denoted as [FA]. The Hill constant, η, indicates the cooperativity between the binding sites, where if η >1 the sites are positively cooperative, η <1 the site are negatively cooperative, and if η = 1 the sites are non-cooperative. [drawing 2] (2)

Data set [9] addresses T6, rL-FABP. Nature of the data set: Displacement of ANS by fatty acids, WT rL-FABP. Type of data set: binding. The procedure:
as §4, §5

[10] abbreviates: rL-FABP treated with 5X 4-HNE + PG.
The mark [11] stands for this setting: rL-FABP treated with 1X 4-HNE (53.93 µM).
The mark [12] stands for this setting: rL-FABP treated with 5X 4-HNE (245.09 µM).

Like-named read-outs stand apart in the source and are kept apart here.

Consider `CCCCCC(O)C=CC=O` (stereo not drawn) [4-HNE, 4-hydroxy-2-nonenal], for which the half-life (usually the time in which the quantity being followed falls by half) in data set [1] is ~2 min. In addition, the figures for the “Tm of apo rL-FABP” value in [2] (0.1X 4-HNE (4.93 µM)), in data set [2] (1X 4-HNE (49.26 µM)) and in data set [2] (5X 4-HNE (246.31 µM)) were 70.09±0.004 °C, 68.56±0.05 °C and 66.38±0.15 °C, respectively. In addition, the “ΔTm of apo L-FABP by 4-HNE adduction” value in data set [2] (P<0.01) is 5.44 °C. Also, the “reduction of capacity for ligand when adducted by 4-HNE” value in data set [3] (saturation analyses) was “approximately 50%”. In addition, the “Tm of holo rL-FABP” value in [4] (0.1X 4-HNE (4.93 µM)) amounted to 83.84±0.39 °C; in data set [4] (1X 4-HNE (49.26 µM)) it was 84.89±0.48 °C; in data set [4] (5X 4-HNE (246.31 µM)) it was 83.698±0.53 °C.

As for `O=S(=O)(O)c1cccc2cccc(Nc3ccccc3)c12` [ANS, 1-Anilinonaphthalene-8-Sulfonic Acid], the Kd in data set [5] is 326 ± 127 nM; in [5] (read-out: Kd2, rL-FABP treated with 5X 4-HNE + PG) it was 27900 ± 10700 nM; in [6], 165 ± 111 nM; in data set [6] (read-out: Kd2, rL-FABP treated with PG 10 mM) it was 7180 ± 121 nM; in [3] (Kd1, rL-FABP treated with 0.1X 4-HNE (5.93 µM)) it was 132 ± 74 nM; in data set [3] (Kd1, rL-FABP treated with 1X 4-HNE (53.93 µM)) it was 135 ± 74 nM. Further, the Kd is 395 ± 101 nM in data set [3] (Kd1, rL-FABP treated with 5X 4-HNE (245.09 µM)); 7400 ± 1070 nM in data set [3] (read-out: Kd2, rL-FABP treated with 0.1X 4-HNE (5.93 µM)); 4990 ± 710 nM in data set [3] (read-out: Kd2, rL-FABP treated with 1X 4-HNE (53.93 µM)); 34200 ± 13900 nM in data set [3] (read-out: Kd2, rL-FABP treated with 5X 4-HNE (245.09 µM)); 347 ± 153 nM in data set [7]; 6170 ± 1440 nM in data set [7] (read-out: Kd2, native rL-FABP, secondary site). The Bmax1 in [5] (setting [10]) is on record as 168,200±22,900 AFU; in [6] (rL-FABP treated with PG 10 mM) it was 83,200±23,200 AFU; in data set [3] (rL-FABP treated with 0.1X 4-HNE (5.93 µM)) it was 175,500±36,800 AFU; in data set [3] (setting [11]), 123,000±28,900 AFU; in [3] (setting [12]), 238,100±21,700 AFU; in data set [7] (native rL-FABP (0X 4-HNE), 1 µM protein, primary site) it was 540,200±142,500 AFU. Besides, the Bmax2 is reported as 512,200±64,500 AFU in [5] (setting [10]); 446,400±17,500 AFU in data set [6] (rL-FABP treated with PG 10 mM); 548,900±23,700 AFU in [3] (setting [11]); 537,400±81,900 AFU in data set [3] (setting [12]); 500,500±116,800 AFU in data set [7] (native rL-FABP, secondary site). Besides, in data set [3] (5X 4-HNE versus native (kd2)), the “decrease in the affinity for ANS, secondary binding site” value was ~6 fold.

On to `CCCCC/C=C\C/C=C\CCCCCCCC(=O)O` [Linoleic Acid], for which the “bi (counts inhibitable)” value was 449,500±11,400 AFU in data set [8] (1X 4-HNE (53.95 µM) treated rL-FABP) and 888,000±54 AFU in data set [9] (45 µM ANS, 1 µM protein). Moreover, the Ki (as a rule, a dissociation constant, usually derived from enzyme kinetics or from competition with a known ligand) in data set [8] (1X 4-HNE (53.95 µM) treated rL-FABP, read-out: ki (inhibition constant)) is 2800 ± 300 nM; in data set [9] (45 µM ANS, 1 µM protein, read-out: ki (inhibition constant)) it was 1560 ± 290 nM. For the same compound, the “br (counts residual)” value in [8] (1X 4-HNE treated rL-FABP) is on record as 96,300±9,200 AFU; in [9], 164,800±43,900 AFU. Further, the “n (hill coefficient)” value in data set [8] (1X 4-HNE treated rL-FABP) was 1.76±0.14; in data set [9] it was 1.38±0.26. Also, in data set [8] (1X 4-HNE treated versus WT rL-FABP), the “reduction of maximal binding to the FA by 4-HNE” value is listed as 49%.
